Here are results for 17 compounds from ChEMBL document CHEMBL1136704, “3-amino-4-sulfonylpyridinone acetamide and related pyridothiadiazine thrombin inhibitors” (Bioorg Med Chem Lett, 2003).

pKi: −log10 of the molar value.

Data set [1] is described as follows: Protein binding activity of compound in human plasma; % Free. The class given is ADME, cell-free.
Data set [2] addresses Serine protease 1 (Homo sapiens, UniProt P07477). Kind of data set: Inhibitory activity against human trypsin.
The species named for data set [3] is Homo sapiens. Kind of data set: Anticoagulant potency, activated partial thromboplastin time assay. Format: functional.
Data set [4] concerns the target Prothrombin (Homo sapiens, UniProt P00734). Kind of data set: Inhibition of human thrombin.
For data set [5], the species on record is Rattus norvegicus. Kind of data set: Final plasma concentration in the rat ferric chloride thrombosis model. Particulars: in vivo.
A short description of data set [6]: Cmax value in dog. The class given is ADME, organism-based, Canis lupus familiaris. Particulars: in vivo.
Data set [7] is described as follows: Pharmacokinetic property (Area under curve). Format: ADME.
A short description of data set [8]: Half life period was determined. To be noted: dog.
A short description of data set [9]: Cmax value in dogs after oral administration at 1 mg/kg. Particulars: dog, in vivo. Format: ADME, organism-based, Canis lupus familiaris. The arrangement: dose 1 mg/kg, route oral.
Data set [10] in a line: Half life period in dogs after oral administration at 1 mg/kg. The class given is ADME, organism-based, Canis lupus familiaris. Further details: dose 1 mg/kg, route oral. Particulars: dog, in vivo.
Data set [11] can be described thus: Pharmacokinetic property in dogs after oral administration at 1 mg/kg. Particulars: dog, in vivo. The arrangement: dose 1 mg/kg, route oral. The class given is ADME, organism-based, Canis lupus familiaris.

Chain of Serine protease 1 (P07477 whole entry): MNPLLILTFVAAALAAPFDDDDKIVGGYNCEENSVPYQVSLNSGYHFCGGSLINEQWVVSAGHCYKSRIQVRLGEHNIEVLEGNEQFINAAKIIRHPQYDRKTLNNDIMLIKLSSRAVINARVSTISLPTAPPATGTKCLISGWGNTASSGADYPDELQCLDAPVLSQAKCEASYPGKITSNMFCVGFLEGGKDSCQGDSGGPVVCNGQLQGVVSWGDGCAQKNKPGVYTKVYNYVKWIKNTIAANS

Compound `Cc1nc(N)ccc1CNC(=O)Cn1c(C)cc(S(=O)(=O)c2cccs2)c(N)c1=O` registered a Free in data set [1] of 40%. The pKi is 6.47 in data set [2] and 8.77 in data set [4]. The compound also gave a Concentration in data set [3] of 0.39 µM. Moreover, the concentration in [5] was 430 nM.

Turning to `Cc1nc(N)ccc1CNC(=O)Cn1c(C)cc2c(c1=O)NCN(CC1CC1)S2(=O)=O`, the Free in [1] amounted to 25%. The compound also returned a Cmax in data set [6] of 590 nM. Further, the AUC in data set [7] worked out at 2.14 µM·h. In addition, the pKi was 5.21 in [2] and 8.68 in data set [4]. The Concentration in data set [3] came out at 0.79 µM. Besides, the half-life in [8] was 2.27 h.

As for `Cc1ccc(S(=O)(=O)c2cc(C)n(CC(=O)NCc3ccc(N)nc3C)c(=O)c2N)cc1`, the pKi in data set [2] was 6.10; in data set [4], 7.03.

`Cc1nc(N)ccc1CNC(=O)Cn1c(C)cc(S(=O)(=O)Cc2ccccc2)c(N)c1=O` yielded a Cmax in [9] of 450 nM. For the same compound, in [1], the Free is recorded as 22%. This compound also showed a pKi in data set [2] of 5.80. The compound further displayed a half-life in [10] of 1.05 h. In data set [3], the Concentration was 0.47 µM. In addition, the AUC in [11] is 0.62 µM·h.

`Cc1nc(N)ccc1CNC(=O)Cn1c(C)cc(S(=O)(=O)CC2CCC2)c(N)c1=O`: the Free in data set [1] is listed as 45%. In [6], this compound showed a Cmax of 570 nM. In data set [7], this compound gave an AUC of 2.58 µM·h. Moreover, the pKi in [2] was 6.26; in data set [4], 9.70. In [3], the Concentration is 0.23 µM. This compound yielded a concentration in data set [5] of 680 nM. Besides, the half-life in data set [8] came to 0.783 h.

As to `Cc1nc(N)ccc1CNC(=O)Cn1c(C)cc(S(=O)(=O)NC2CC2)c(N)c1=O`, the pKi in data set [2] is 5.54. In data set [3], this compound registered a Concentration of 0.85 µM.

In data set [1], `Cc1nc(N)ccc1CNC(=O)Cn1c(C)cc(S(=O)(=O)CC2CC2)c(N)c1=O` showed a Free of 70%. In [6], the highest level (Cmax) was 370 nM. In [7], this compound gave an AUC of 0.8 µM·h. In addition, the values for the pKi in [2] and in [4] were 5.72 and 8.74, respectively. The Concentration in data set [3] is 0.4 µM. This compound also displayed a concentration in data set [5] of 550 nM. In addition, the half-life in data set [8] is 1.1 h.

For `Cc1nc(N)ccc1CNC(=O)Cn1c(C)cc(S(=O)(=O)CC2CCCC2)c(N)c1=O`, the Free in data set [1] is recorded as 29%. Besides, the pKi in [2] was 6.20; in data set [4], 8.92. The compound further displayed a Concentration in data set [3] of 0.4 µM. Also, the concentration in data set [5] was determined as 530 nM.

Turning to `Cc1nc(N)ccc1CNC(=O)Cn1c(C)cc(S(=O)(=O)C2CC2)c(N)c1=O`, the pKi in data set [2] was 5.55; in data set [4], 7.77. The compound further showed a Concentration in [3] of 1.64 µM.

Turning to `Cc1nc(N)ccc1CNC(=O)Cn1c(C)cc(S(=O)(=O)NCC2CC2)c(N)c1=O`, the Free in data set [1] is listed as 53%. Moreover, the negative logarithm of the Ki (pKi) in data set [2] was 6.00. In data set [3], this compound had a Concentration of 0.75 µM.

`Cc1nc(N)ccc1CNC(=O)Cn1c(C)cc(S(=O)(=O)c2ccccc2)c(N)c1=O` registered a Free in [1] of 19%. The pKi in [2] was 6.30; in data set [4], 8.42. In [3], this compound showed a Concentration of 0.66 µM. Also, the concentration in data set [5] came out at 570 nM.

In the case of `Cc1nc(N)ccc1CNC(=O)Cn1c(C)cc(S(=O)(=O)NC2CCC2)c(N)c1=O`, in data set [1], the Free is 45%. Moreover, the pKi in data set [2] is 5.96. Further, the Concentration in data set [3] worked out at 0.35 µM.

`Cc1nc(N)ccc1CNC(=O)Cn1c(C)cc2c(c1=O)NCN(CC1CCC1)S2(=O)=O` had a pKi in [2] of 5.80. This compound showed a Concentration in [3] of 0.92 µM.

Take `Cc1nc(N)ccc1CNC(=O)Cn1c(C)cc(S(=O)(=O)C2CCCCC2)c(N)c1=O`: the Free in data set [1] is 38%. Besides, the pKi in data set [2] is 6.59; in data set [4], 8.52. The compound also displayed a Concentration in [3] of 0.75 µM. In data set [5], the concentration is 650 nM.

In data set [1], `Cc1nc(N)ccc1CNC(=O)Cn1c(C)cc(S(=O)(=O)NCC2CCC2)c(N)c1=O` came in with a Free of 23%. The pKi is 6.13 in data set [2] and 9.12 in data set [4]. In data set [3], the Concentration is 0.47 µM. The concentration in data set [5] is 640 nM.

In [2], `Cc1nc(N)ccc1CNC(=O)Cn1c(C)cc2c(c1=O)NCN(C1CC1)S2(=O)=O` gave a pKi of 5.00. For the same compound, in data set [3], the Concentration was found to be 0.75 µM.

For `Cc1nc(N)ccc1CNC(=O)Cn1c(C)cc2c(c1=O)NCN(C1CCC1)S2(=O)=O`, the pKi in [2] is 5.20. This compound yielded a Concentration in data set [3] of 1.11 µM.

For orientation: pKi means the Ki on a negative log10 scale, so that one unit is a factor of ten. Read a low pKi as a large Ki. The Cmax is the maximum level reached in the sampled fluid or tissue. Usually AUC stands for the area under the concentration-time curve, a measure of exposure. The low end stands for less exposure, the high end for more exposure. What is called half-life is the time in which the quantity being followed falls by half. Read a low half-life as fast loss.
